Measurements from PubChem BioAssay (NCI).
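Five compound concentrations were applied to cells in 96-well plates for 48 hours; endpoints were derived by simple linear interpolation of the resulting dose-response curve. GI50 is the concentration that inhibits growth by half. The concentration for full growth arrest is given as TGI.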

Key:
Assay in all cases: inhibition of tumour cell growth, NCI panel, 48 h
[1] = test system: CAKI-1 renal
[2] = test system: K-562 leukemia
[3] = test system: A498 renal
[4] = test system: NCI-H522 lung
[5] = test system: RXF 393 renal
[6] = test system: SK-OV-3 ovarian
[7] = test system: MDA-MB-435
[8] = test system: UO-31 renal

Row | Structure (SMILES) | GI50 [1] | TGI [1] | GI50 [2] | TGI [2] | GI50 [3] | TGI [3] | GI50 [4] | TGI [4] | GI50 [5] | TGI [5] | GI50 [6] | TGI [6] | GI50 [7] | TGI [7] | GI50 [8] | TGI [8]
1 | COc1ccc(NC2=C(Sc3nc(C)cc(C)n3)C(=O)N(Cc3ccccc3)C2=O)cc1Cl | > 160 µM | > 160 µM | > 160 µM | > 160 µM | 62.1 µM | > 160 µM | > 160 µM | > 160 µM | 29 µM | 136 µM | > 160 µM | > 160 µM | 158 µM | > 160 µM | > 160 µM | > 160 µM
2 | CNC(=O)c1cc(Oc2ccc3nc(NC(=O)Nc4ccc(Cl)c(Cl)c4)sc3c2)ccn1 | 2.46 µM | 6.3 µM | > 100 µM | > 100 µM | 2.93 µM | 6.64 µM | 4.09 µM | > 100 µM | 1.84 µM | 3.65 µM | 2.24 µM | 4.09 µM | 2.02 µM | 4.62 µM | 2.08 µM | 3.96 µM
3 | FC(F)(F)c1ccc2c(c1)N(CCCN1CCN(C3CC3)CC1)c1ccccc1S2 | 3.6 µM | 16.1 µM | 3.98 µM | 20.5 µM | 11 µM | 23.3 µM | 11.5 µM | 25.8 µM | 11.5 µM | 24.1 µM | 12.9 µM | 26.6 µM | 12.2 µM | 27.6 µM | 8.13 µM | 22.9 µM
4 | O=C(O)C(/C=C/c1ccco1)=N\Nc1nc(-c2ccc(Cl)cc2)cs1 | 16.6 µM | > 50 µM | 13.5 µM | > 50 µM | > 50 µM | > 50 µM | 7.61 µM | 41.3 µM | 10.4 µM | 28.4 µM | 16.1 µM | > 50 µM | 11.3 µM | > 50 µM | 12.9 µM | > 50 µM
5 | Cc1c(C(=O)/C=C/c2ccc(O)cc2)nnn1-c1ccnc2c(C(F)(F)F)cccc12 | 28.6 µM | > 100 µM | 2.64 µM | > 100 µM | 51 µM | > 100 µM | 6.2 µM | > 100 µM | 16.6 µM | 67.3 µM | 15.1 µM | 72.5 µM | 10.8 µM | > 100 µM | 41.9 µM | > 100 µM
6 | Nc1cc(N)c2nc(-c3ccccc3)c(Nc3ccc(F)cc3)nc2c1 | 19.2 µM | 40.4 µM | 4.97 µM | > 100 µM | 17.4 µM | 33.8 µM | > 100 µM | > 100 µM | 8.71 µM | 28.8 µM | 40.7 µM | > 100 µM | 7.34 µM | 20.8 µM | 16.9 µM | 61.4 µM
7 | COc1cc2c(cc1OCCCCCOc1cc(-c3ccc(F)cc3)nc(C)n1)N=C[C@@H]1CCCN1C2=O | > 41.7 µM | > 66.9 µM | > 21.6 µM | > 66.4 µM | > 100 µM | > 100 µM | > 20.5 µM | > 42.3 µM | > 32.9 µM | > 54.3 µM | > 51.6 µM | > 78.8 µM | > 45.3 µM | > 67.5 µM | > 28.3 µM | > 59 µM
8 | CC1(C)OC2C(CO)OC(n3ccc(=O)[nH]c3=O)C2O1 (stereo unspecified) | – | > 100 µM | – | > 100 µM | – | > 100 µM | – | > 100 µM | – | > 100 µM | – | > 100 µM | – | > 100 µM | – | > 100 µM
9 | C#Cc1cccc(NC(=O)Nc2ccc(NC(=O)CCl)cc2)c1 | 15.7 µM | 36.2 µM | 15.5 µM | 53.9 µM | > 82.5 µM | > 82.5 µM | 12.2 µM | 29.3 µM | 9.37 µM | 23.2 µM | 15.5 µM | 33 µM | 22.1 µM | > 82.5 µM | 12.2 µM | 23.3 µM
10 | N#Cc1c(NC(=O)c2cccs2)[n+]([O-])c2ccccc2[n+]1[O-] | > 100 µM | > 100 µM | > 100 µM | > 100 µM | > 100 µM | > 100 µM | > 100 µM | > 100 µM | > 100 µM | > 100 µM | 26 µM | > 100 µM | > 100 µM | > 100 µM | > 100 µM | > 100 µM
11 | O=C(Nc1ccccc1Cl)c1cnc2ccc(C3CCNCC3)cn12 | 1.51 µM | 12 µM | 8.23 µM | > 100 µM | 1.49 µM | > 45.5 µM | 1.06 µM | > 100 µM | 0.802 µM | 4.84 µM | 3.05 µM | > 100 µM | 32.6 µM | > 100 µM | 2.13 µM | > 100 µM
12 | C[C@]12CC[C@H]3[C@@H](CCC4=CC(=O)CC[C@@H]43)[C@@H]1CC[C@@H]2OC1(O)C(=O)c2ccccc2C1=O | – | > 100 µM | – | > 100 µM | – | > 100 µM | – | 35.9 µM | – | > 100 µM | – | > 100 µM | – | > 100 µM | – | 78.3 µM
